Test results: the NIST ThermoML archive (doi:10.1016/j.jct.2018.01.024)

Test: mn = molality of the nth substance listed, in mol/kg
Conditions: Liquid

NC(N)=O [urea] + O
Conditions	mass density [kg/m3]
279.15 K, 101 kPa, Vibrating tube method, m1 = 0.1063	1001.79
279.15 K, 101 kPa, Vibrating tube method, m1 = 0.141	1002.39
279.15 K, 101 kPa, Vibrating tube method, m1 = 0.152	1002.57
279.15 K, 101 kPa, Vibrating tube method, m1 = 0.1809	1003.07
279.15 K, 101 kPa, Vibrating tube method, m1 = 0.2423	1004.12
279.15 K, 101 kPa, Vibrating tube method, m1 = 0.4362	1007.39
279.15 K, 101 kPa, Vibrating tube method, m1 = 0.5644	1009.51
279.15 K, 101 kPa, Vibrating tube method, m1 = 1.008	1016.61
279.15 K, 101 kPa, Vibrating tube method, m1 = 1.609	1025.68
279.15 K, 101 kPa, Vibrating tube method, m1 = 2.505	1038.19
280.15 K, 101 kPa, Vibrating tube method, m1 = 0.093	1001.51
280.15 K, 101 kPa, Vibrating tube method, m1 = 0.1063	1001.74
280.15 K, 101 kPa, Vibrating tube method, m1 = 0.141	1002.33
280.15 K, 101 kPa, Vibrating tube method, m1 = 0.152	1002.52
280.15 K, 101 kPa, Vibrating tube method, m1 = 0.1809	1003.02
280.15 K, 101 kPa, Vibrating tube method, m1 = 0.2423	1004.06
280.15 K, 101 kPa, Vibrating tube method, m1 = 0.4362	1007.31
280.15 K, 101 kPa, Vibrating tube method, m1 = 0.5644	1009.42
280.15 K, 101 kPa, Vibrating tube method, m1 = 1.008	1016.48
280.15 K, 101 kPa, Vibrating tube method, m1 = 1.609	1025.5
280.15 K, 101 kPa, Vibrating tube method, m1 = 2.505	1037.95
281.15 K, 101 kPa, Vibrating tube method, m1 = 0.093	1001.45
281.15 K, 101 kPa, Vibrating tube method, m1 = 0.1063	1001.67
281.15 K, 101 kPa, Vibrating tube method, m1 = 0.141	1002.26
281.15 K, 101 kPa, Vibrating tube method, m1 = 0.152	1002.46
281.15 K, 101 kPa, Vibrating tube method, m1 = 0.1809	1002.95
281.15 K, 101 kPa, Vibrating tube method, m1 = 0.2423	1003.99
281.15 K, 101 kPa, Vibrating tube method, m1 = 0.4362	1007.21
281.15 K, 101 kPa, Vibrating tube method, m1 = 0.5644	1009.31
281.15 K, 101 kPa, Vibrating tube method, m1 = 1.008	1016.33
281.15 K, 101 kPa, Vibrating tube method, m1 = 1.609	1025.3
281.15 K, 101 kPa, Vibrating tube method, m1 = 2.505	1037.71
282.15 K, 101 kPa, Vibrating tube method, m1 = 0.093	1001.37
282.15 K, 101 kPa, Vibrating tube method, m1 = 0.1063	1001.6
282.15 K, 101 kPa, Vibrating tube method, m1 = 0.141	1002.18
282.15 K, 101 kPa, Vibrating tube method, m1 = 0.152	1002.37
282.15 K, 101 kPa, Vibrating tube method, m1 = 0.1809	1002.86
282.15 K, 101 kPa, Vibrating tube method, m1 = 0.2423	1003.89
282.15 K, 101 kPa, Vibrating tube method, m1 = 0.4362	1007.1
282.15 K, 101 kPa, Vibrating tube method, m1 = 0.5644	1009.18
282.15 K, 101 kPa, Vibrating tube method, m1 = 1.008	1016.17
282.15 K, 101 kPa, Vibrating tube method, m1 = 1.609	1025.12
282.15 K, 101 kPa, Vibrating tube method, m1 = 2.505	1037.45
283.15 K, 101 kPa, Vibrating tube method, m1 = 0.093	1001.28
283.15 K, 101 kPa, Vibrating tube method, m1 = 0.1063	1001.51
283.15 K, 101 kPa, Vibrating tube method, m1 = 0.141	1002.09
283.15 K, 101 kPa, Vibrating tube method, m1 = 0.152	1002.27
283.15 K, 101 kPa, Vibrating tube method, m1 = 0.1809	1002.76
283.15 K, 101 kPa, Vibrating tube method, m1 = 0.2423	1003.78
283.15 K, 101 kPa, Vibrating tube method, m1 = 0.4362	1006.97
283.15 K, 101 kPa, Vibrating tube method, m1 = 0.5644	1009.04
283.15 K, 101 kPa, Vibrating tube method, m1 = 1.008	1016
283.15 K, 101 kPa, Vibrating tube method, m1 = 1.609	1024.89
283.15 K, 101 kPa, Vibrating tube method, m1 = 2.505	1037.2
288.15 K, 101 kPa, Vibrating tube method, m1 = 0.093	1000.63
288.15 K, 101 kPa, Vibrating tube method, m1 = 0.1063	1000.85
288.15 K, 101 kPa, Vibrating tube method, m1 = 0.141	1001.42
288.15 K, 101 kPa, Vibrating tube method, m1 = 0.152	1001.6
288.15 K, 101 kPa, Vibrating tube method, m1 = 0.1809	1002.08
288.15 K, 101 kPa, Vibrating tube method, m1 = 0.2423	1003.08
288.15 K, 101 kPa, Vibrating tube method, m1 = 0.4362	1006.2
288.15 K, 101 kPa, Vibrating tube method, m1 = 0.5644	1008.22
288.15 K, 101 kPa, Vibrating tube method, m1 = 1.008	1015
288.15 K, 101 kPa, Vibrating tube method, m1 = 1.609	1023.7
288.15 K, 101 kPa, Vibrating tube method, m1 = 2.505	1035.73
288.15 K, 101 kPa, Vibrating tube method, m1 = 3.376	1046.46
288.15 K, 101 kPa, Vibrating tube method, m1 = 4.33	1057.3
288.15 K, 101 kPa, Vibrating tube method, m1 = 5.39	1068.26
288.15 K, 101 kPa, Vibrating tube method, m1 = 8	1091.62
288.15 K, 101 kPa, Vibrating tube method, m1 = 9.9	1105.86
288.15 K, 101 kPa, Vibrating tube method, m1 = 12.8	1124.47
288.15 K, 10000 kPa, Constant-volume piezometry, m1 = 0.1809	1006.62
288.15 K, 10000 kPa, Constant-volume piezometry, m1 = 0.4362	1010.71
288.15 K, 10000 kPa, Constant-volume piezometry, m1 = 0.5644	1012.73
288.15 K, 10000 kPa, Constant-volume piezometry, m1 = 1.609	1028.1
288.15 K, 10000 kPa, Constant-volume piezometry, m1 = 2.505	1040.04
288.15 K, 10000 kPa, Constant-volume piezometry, m1 = 3.376	1050.69
288.15 K, 10000 kPa, Constant-volume piezometry, m1 = 5.39	1072.37
288.15 K, 10000 kPa, Constant-volume piezometry, m1 = 8	1095.6
288.15 K, 10000 kPa, Constant-volume piezometry, m1 = 10.99	1117.15
288.15 K, 10000 kPa, Constant-volume piezometry, m1 = 12.8	1128.28
288.15 K, 25000 kPa, Constant-volume piezometry, m1 = 0.1809	1013.33
288.15 K, 25000 kPa, Constant-volume piezometry, m1 = 0.4362	1017.37
288.15 K, 25000 kPa, Constant-volume piezometry, m1 = 0.5644	1019.38
288.15 K, 25000 kPa, Constant-volume piezometry, m1 = 1.609	1034.57
288.15 K, 25000 kPa, Constant-volume piezometry, m1 = 2.505	1046.37
288.15 K, 25000 kPa, Constant-volume piezometry, m1 = 3.376	1056.91
288.15 K, 25000 kPa, Constant-volume piezometry, m1 = 5.39	1078.39
288.15 K, 25000 kPa, Constant-volume piezometry, m1 = 8	1101.46
288.15 K, 25000 kPa, Constant-volume piezometry, m1 = 10.99	1122.84
288.15 K, 25000 kPa, Constant-volume piezometry, m1 = 12.8	1133.9
288.15 K, 50000 kPa, Constant-volume piezometry, m1 = 0.1809	1024.08
288.15 K, 50000 kPa, Constant-volume piezometry, m1 = 0.4362	1028.05
288.15 K, 50000 kPa, Constant-volume piezometry, m1 = 0.5644	1029.99
288.15 K, 50000 kPa, Constant-volume piezometry, m1 = 1.609	1044.87
288.15 K, 50000 kPa, Constant-volume piezometry, m1 = 2.505	1056.4
288.15 K, 50000 kPa, Constant-volume piezometry, m1 = 3.376	1066.74
288.15 K, 50000 kPa, Constant-volume piezometry, m1 = 5.39	1087.86
288.15 K, 50000 kPa, Constant-volume piezometry, m1 = 8	1110.67
288.15 K, 50000 kPa, Constant-volume piezometry, m1 = 10.99	1131.87
288.15 K, 50000 kPa, Constant-volume piezometry, m1 = 12.8	1142.81
288.15 K, 75000 kPa, Constant-volume piezometry, m1 = 0.1809	1034.29
288.15 K, 75000 kPa, Constant-volume piezometry, m1 = 0.4362	1038.17
288.15 K, 75000 kPa, Constant-volume piezometry, m1 = 0.5644	1040.07
288.15 K, 75000 kPa, Constant-volume piezometry, m1 = 1.609	1054.62
288.15 K, 75000 kPa, Constant-volume piezometry, m1 = 2.505	1065.93
288.15 K, 75000 kPa, Constant-volume piezometry, m1 = 3.376	1076.06
288.15 K, 75000 kPa, Constant-volume piezometry, m1 = 5.39	1096.81
288.15 K, 75000 kPa, Constant-volume piezometry, m1 = 8	1119.36
288.15 K, 75000 kPa, Constant-volume piezometry, m1 = 10.99	1140.4
288.15 K, 75000 kPa, Constant-volume piezometry, m1 = 12.8	1151.22
288.15 K, 100000 kPa, Constant-volume piezometry, m1 = 0.1809	1043.99
288.15 K, 100000 kPa, Constant-volume piezometry, m1 = 0.4362	1047.8
